# Test results reported in patent US9815777B2, “Metformin salts to treat Type2 diabetes” (Jiva Pharma, Inc., priority 2013, dated 2017).
# Entries after “also recorded” stand apart in the source; their conditions may differ. Structures can show the parent of a compound that is named as a salt.
# Columns and labels:
# [1] = test system: Female db/db B6BKS (D) Leprdb/J mice; assay: Fasting blood glucose in db/db mouse model of diabetes, daily oral gavage; type: in vivo; details: for Fasting Blood Glucose (% changes from vehicle control): 6 h fast; for Blood glucose lowering compared with the equivalent dose of metformin (in words): difference not statistically significant
# Text: (§1) The anti-diabetic activity of Met.TZ was examined in a standard mouse model of diabetes, in comparison to the front-line anti-diabetes drug metformin hydrochloride. Female db/db B6BKS (D) Leprdb/J mice of approximately 6.5 to 9.5 weeks old were used for this study. This is a standard genetic model of obesity related insulin resistance and diabetes, and has served as model animal for the development and analysis of many metabolically active drugs.
# (§2) Two treatment groups of six female mice were administered Met.TZ (MetX), at dose levels of 44.7 mg/kg/dose or 149 mg/kg/dose. Two treatment groups of six female mice were administered the test sample TZ (X), at dose levels of 21.2 mg/kg/dose or 70.8 mg/kg/dose Two treatment groups of six female mice were administered the positive control article, metformin hydrochloride, at dose levels of 30 mg/kg/dose or 100 mg/kg/dose. One additional group of six mice served as the control and received the test article vehicle, water. All drugs and vehicle solutions were administered daily during the study via oral gavage at a dose volume of 5 mL/kg. Body weights were measured three times per week, at the time of glucose measurements.
# (§3) Blood samples for glucose analysis were collected three times per week beginning on Day 1 through Day 26. Animals were fasted for 6 hours prior to glucose testing. On Days 1 through 12, the test article, positive control, and vehicle were administered after completion of the glucose testing. On Days 15 through 24 the dosing occurred approximately 90 minutes prior to glucose testing. On Day 26, a glucose tolerance test (GTT) was performed. The animals were administered a glucose solution at a dose level of 2 g/kg and a dose volume of 5 mL/kg. Blood collection for glucose measurements were collected predose, and at 0.5, 1, 1.5, 2, and 3 hours following administration of the glucose solution.
# [2] = test system: Female db/db B6BKS (D) Leprdb/J mice; assay: Oral glucose tolerance test (GTT) on day 26 in db/db mice; type: in vivo, mouse
# Text: as §1, §2, §3
structure (smiles),measurement,setting,value
"CN(C)C(=N)NC(=N)N.O=C1CSC(=O)N1 [Met.TZ, Metformin thiazolidine-2,4-dione-3-ide]",Glucose lowering activity (in words),"[1]; 149 mg/kg (equivalent to metformin 100 mg/kg), from day 17 until termination of the study",striking glucose lowering activity
same,Fasting Blood Glucose (% changes from vehicle control),"[1]; day 15 of treatment, 149 mg/kg/day oral gavage",−13%
same,Fasting Blood Glucose (% changes from vehicle control),"[1]; day 17 of treatment, 149 mg/kg/day oral gavage",−51%
same,Fasting Blood Glucose (% changes from vehicle control),"[1]; day 19 of treatment, 149 mg/kg/day oral gavage",−33%
same,Fasting Blood Glucose (% changes from vehicle control),"[1]; day 22 of treatment, 149 mg/kg/day oral gavage",−52%
same,Blood glucose lowering compared with the equivalent dose of metformin (in words),[1]; db/db mice,more effective at lowering blood glucose than the equivalent dose of metformin; also recorded: lower glucose more than the equivalent dose of metformin hydrochloride alone
same,Blood glucose lowering compared with the equivalent dose of metformin (in words),"[1]; db/db mice, listed as 2,4-thiazolidinedione with metformin as its salt (1:1)",enhanced the glucose lowering effect of metformin
same,"GTT glucose curve versus control animals (Veh), significance","[2]; P<0.05 by ANOVA, means of 6 animals",significantly different than that from control animals
same,Glucose levels post glucose administration compared with the equivalent dose of metformin (in words),"[2]; every time point, 149 mg/kg/day vs metformin 100 mg/kg/day, difference not statistically significant",lower glucose levels than animals treated with the equivalent dose of metformin
same,Glucose tolerance (in words),"[2]; glucose 2 g/kg, 149 mg/kg/day",striking improvement in glucose tolerance
"CN(C)C(=N)N=C(N)N [Metformin, metformin hydrochloride]",Fasting Blood Glucose (% changes from vehicle control),"[1]; day 15 of treatment, 100 mg/kg/day oral gavage",−9%
same,Fasting Blood Glucose (% changes from vehicle control),"[1]; day 17 of treatment, 100 mg/kg/day oral gavage",−34%
same,Fasting Blood Glucose (% changes from vehicle control),"[1]; day 19 of treatment, 100 mg/kg/day oral gavage",−7%
same,Fasting Blood Glucose (% changes from vehicle control),"[1]; day 22 of treatment, 100 mg/kg/day oral gavage",−43%
"O=C1CSC(=O)N1 [TZ, 2,4-thiazolidinedione]",Fasting Blood Glucose (% changes from vehicle control),"[1]; day 15 of treatment, 70.8 mg/kg/day oral gavage",+34%
same,Fasting Blood Glucose (% changes from vehicle control),"[1]; day 17 of treatment, 70.8 mg/kg/day oral gavage",−22%
same,Fasting Blood Glucose (% changes from vehicle control),"[1]; day 19 of treatment, 70.8 mg/kg/day oral gavage",+9%
same,Fasting Blood Glucose (% changes from vehicle control),"[1]; day 22 of treatment, 70.8 mg/kg/day oral gavage",−19%
same,Hypoglycemic activity without any metformin (in words),"[1]; db/db mice, same model",little effect on glucose lowering
